Some test systems named below: SNB-19; KM12; K562; 786-0; HOP-62; SF-539; SF-295; A549; RPMI-8226; UACC-62; NCI-H522; M14; MOLT-4; EKVX; UACC-257.
Common to all, as to assay: NCI-60 cell line screen, 48 h

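Where inhibition never reached the appropriate level, the endpoint shown equals the highest concentration tested. Otherwise, values were interpolated linearly from a five-concentration, 48-hour dose response in 96-well plates. The concentration for 50% growth inhibition is given as GI50.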 Active and inactive are the calls of the source. No stated cut-off is given here; in the data, active = GI50 up to about 1.1 µM and inactive = higher.

Regarding `Cc1nc2cc(Nc3ccccc3C(=O)O)ccc2s1`, the GI50 in the assay on SNB-19, in the assay with KM12, with K562, in the assay with 786-0, with HOP-62 and with SF-539 was > 100 µM (inactive) throughout. Moreover, the GI50 in the assay with SF-295 is > 100 µM (inactive); with A549, > 100 µM (inactive); with RPMI-8226, > 100 µM (inactive); in the assay with UACC-62, > 100 µM (inactive); in the assay with NCI-H522 it was 75 µM (inactive); with M14, > 100 µM (inactive). The GI50 in the assay on MOLT-4 is > 100 µM (inactive).
As to `CC(C)(C)C(=O)Nc1cccc2oc(-c3ccccc3)cc12`, the GI50 is > 100 µM (inactive) in the assay with SNB-19; 65.3 µM (inactive) with EKVX; > 100 µM (inactive) with KM12; > 100 µM (inactive) with K562; > 100 µM (inactive) in the assay with 786-0; > 100 µM (inactive) in the assay on HOP-62. Also, the GI50 with SF-539, in the assay on SF-295, in the assay with A549, in the assay on RPMI-8226, with UACC-62 and in the assay on UACC-257 was > 100 µM (inactive) throughout. Also, the GI50 in the assay on M14 was > 100 µM (inactive); in the assay on MOLT-4, 49.7 µM (inactive).
In the case of `O=C1Nc2ccc(Cl)c(I)c2C1=O`, the GI50 with SNB-19 is 24.5 µM (inactive); in the assay with EKVX, 5.62 µM (inactive); in the assay with KM12, 26.5 µM (inactive); with K562, 22.3 µM (inactive); with 786-0 it was 19.7 µM (inactive); in the assay on HOP-62 it was 19.5 µM (inactive). The GI50 in the assay with SF-295 is 17.8 µM (inactive); with A549, 44.7 µM (inactive); in the assay on RPMI-8226, > 10 µM (inactive); with UACC-62, 18.7 µM (inactive); in the assay with NCI-H522 it was 17.2 µM (inactive); in the assay with UACC-257, 17.9 µM (inactive). The GI50 in the assay on M14 is 17 µM (inactive); in the assay on MOLT-4, 22.9 µM (inactive).
As to `Cc1ccccc1C(C#N)C(=O)C(=O)Nc1nc([N+](=O)[O-])cs1` (stereo unspecified), the GI50 in the assay on SNB-19, in the assay on EKVX, in the assay on KM12, in the assay on 786-0, in the assay with HOP-62 and with SF-539 was > 100 µM (inactive) each time. The GI50 in the assay with A549, in the assay with UACC-62, with NCI-H522, in the assay with UACC-257 and in the assay with M14 was > 100 µM (inactive) throughout.
With `CC1=CCCC(OC(N)=O)C1` (stereo unspecified), the GI50 with SNB-19, in the assay on EKVX, in the assay with KM12, with K562, in the assay with 786-0 and with HOP-62 was > 100 µM (inactive) throughout. Also, the GI50 with SF-539, in the assay with SF-295, in the assay on A549, in the assay with RPMI-8226, with UACC-62 and with UACC-257 was > 100 µM (inactive) throughout. The GI50 in the assay with M14 and in the assay with MOLT-4 was > 100 µM (inactive) each time.
As for `O=C(O)CNS(=O)(=O)c1ccc(NC(=O)c2ccccc2[N+](=O)[O-])cc1`, the GI50 in the assay on SNB-19, in the assay on EKVX, with K562, in the assay on 786-0, in the assay on SF-539 and in the assay with A549 was > 100 µM (inactive) in each case. Moreover, the GI50 in the assay with RPMI-8226, in the assay on UACC-62, in the assay on NCI-H522, with UACC-257, in the assay on M14 and in the assay with MOLT-4 was > 100 µM (inactive) each time.
Turning to `CCOC(=O)C1C2CCC(C2)C1(CCl)C(=O)OCC` (stereo unspecified), the GI50 in the assay with SNB-19, in the assay with K562, with 786-0, with HOP-62, in the assay on SF-295 and in the assay on A549 was > 100 µM (inactive) throughout. The GI50 in the assay on RPMI-8226, in the assay with UACC-62, with UACC-257, with M14 and with MOLT-4 was > 100 µM (inactive) throughout.
`CCc1ccccc1NC(=O)CCc1nnc(S)[nH]1`: the GI50 in the assay on SNB-19, in the assay with KM12, with K562, in the assay on 786-0, in the assay with HOP-62 and in the assay with SF-539 was > 100 µM (inactive) throughout. Moreover, the GI50 with SF-295, in the assay on A549, with RPMI-8226, in the assay with UACC-62, in the assay on NCI-H522 and with UACC-257 was > 100 µM (inactive) each time. For the same compound, the GI50 with M14 and in the assay on MOLT-4 was > 100 µM (inactive) in each case.
Consider `CS(=O)(=O)c1ccc(-c2cc(-c3ccc(S(C)(=O)=O)cc3)[n+](-c3cc(-c4ccc(S(C)(=O)=O)cc4)c([O-])c(-c4ccc(S(C)(=O)=O)cc4)c3)c(-c3ccc(S(C)(=O)=O)cc3)c2)cc1`, for which the GI50 in the assay on SNB-19, with KM12, in the assay on K562, in the assay with 786-0, in the assay with HOP-62 and in the assay with SF-539 was > 100 µM (inactive) each time. In addition, the GI50 was 91.8 µM (inactive) in the assay with SF-295; > 100 µM (inactive) with A549; > 100 µM (inactive) in the assay on RPMI-8226; > 100 µM (inactive) with UACC-62; > 100 µM (inactive) in the assay with NCI-H522; 56.5 µM (inactive) with UACC-257. Moreover, the GI50 with M14 and in the assay on MOLT-4 was > 100 µM (inactive) in each case.
For `CC1=C(C#N)C(=O)CC(c2ccc(Cl)cc2)N(C)N1` (stereo unspecified), the GI50 in the assay with SNB-19, with KM12, in the assay with 786-0, with HOP-62, with SF-295 and with A549 was > 100 µM (inactive) in each case. In addition, the GI50 in the assay on RPMI-8226, with NCI-H522, in the assay with UACC-257, in the assay with M14 and with MOLT-4 was > 100 µM (inactive) each time.
Take `FC(F)(F)c1ccccc1/C=N/C12CC3CC(CC(C3)C1)C2`: the GI50 with SNB-19 is 0.986 µM (active); with EKVX, > 100 µM (inactive); in the assay on KM12, > 100 µM (inactive); in the assay on K562, > 100 µM (inactive); with 786-0, > 100 µM (inactive); with HOP-62, > 100 µM (inactive). Also, the GI50 in the assay with SF-539, in the assay with SF-295, in the assay with A549, in the assay on RPMI-8226, in the assay with UACC-257 and in the assay on M14 was > 100 µM (inactive) each time. For the same compound, the GI50 in the assay on MOLT-4 was > 100 µM (inactive).

The values are drawn from ChEMBL document CHEMBL1201862, “PubChem BioAssay data set” (2004).
